In US8642609B2, “Modulators of ATP-binding cassette transporters” (Vertex Pharmaceuticals Incorporated, priority 2003, dated 2014):
pEC50: −log10 of the molar value.

Molecular target: T1, ΔF508-CFTR (Homo sapiens, UniProt P13569, DEL508-508)
T1 construct: expressed in transfected cells
Test: Membrane potential optical assay (FRET/VIPR), identification of correction compounds
Format: cell-based
Conditions: for Emax: relative efficacy
In short: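 Corrector screen: FRET voltage-sensor dyes (CC2-DMPE donor, DiSBAC2(3)) report Cl^− efflux-driven depolarization after 10 μM forskolin and 20 μM genistein in Cl^−-free medium. Beforehand, ΔF508-CFTR NIH3T3 fibroblasts received compound for 16 hrs at 37° C; temperature-corrected cells (27° C) served as positive control.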

T1 sequence (P13569 with tags, fused parts or gaps DEL508-508): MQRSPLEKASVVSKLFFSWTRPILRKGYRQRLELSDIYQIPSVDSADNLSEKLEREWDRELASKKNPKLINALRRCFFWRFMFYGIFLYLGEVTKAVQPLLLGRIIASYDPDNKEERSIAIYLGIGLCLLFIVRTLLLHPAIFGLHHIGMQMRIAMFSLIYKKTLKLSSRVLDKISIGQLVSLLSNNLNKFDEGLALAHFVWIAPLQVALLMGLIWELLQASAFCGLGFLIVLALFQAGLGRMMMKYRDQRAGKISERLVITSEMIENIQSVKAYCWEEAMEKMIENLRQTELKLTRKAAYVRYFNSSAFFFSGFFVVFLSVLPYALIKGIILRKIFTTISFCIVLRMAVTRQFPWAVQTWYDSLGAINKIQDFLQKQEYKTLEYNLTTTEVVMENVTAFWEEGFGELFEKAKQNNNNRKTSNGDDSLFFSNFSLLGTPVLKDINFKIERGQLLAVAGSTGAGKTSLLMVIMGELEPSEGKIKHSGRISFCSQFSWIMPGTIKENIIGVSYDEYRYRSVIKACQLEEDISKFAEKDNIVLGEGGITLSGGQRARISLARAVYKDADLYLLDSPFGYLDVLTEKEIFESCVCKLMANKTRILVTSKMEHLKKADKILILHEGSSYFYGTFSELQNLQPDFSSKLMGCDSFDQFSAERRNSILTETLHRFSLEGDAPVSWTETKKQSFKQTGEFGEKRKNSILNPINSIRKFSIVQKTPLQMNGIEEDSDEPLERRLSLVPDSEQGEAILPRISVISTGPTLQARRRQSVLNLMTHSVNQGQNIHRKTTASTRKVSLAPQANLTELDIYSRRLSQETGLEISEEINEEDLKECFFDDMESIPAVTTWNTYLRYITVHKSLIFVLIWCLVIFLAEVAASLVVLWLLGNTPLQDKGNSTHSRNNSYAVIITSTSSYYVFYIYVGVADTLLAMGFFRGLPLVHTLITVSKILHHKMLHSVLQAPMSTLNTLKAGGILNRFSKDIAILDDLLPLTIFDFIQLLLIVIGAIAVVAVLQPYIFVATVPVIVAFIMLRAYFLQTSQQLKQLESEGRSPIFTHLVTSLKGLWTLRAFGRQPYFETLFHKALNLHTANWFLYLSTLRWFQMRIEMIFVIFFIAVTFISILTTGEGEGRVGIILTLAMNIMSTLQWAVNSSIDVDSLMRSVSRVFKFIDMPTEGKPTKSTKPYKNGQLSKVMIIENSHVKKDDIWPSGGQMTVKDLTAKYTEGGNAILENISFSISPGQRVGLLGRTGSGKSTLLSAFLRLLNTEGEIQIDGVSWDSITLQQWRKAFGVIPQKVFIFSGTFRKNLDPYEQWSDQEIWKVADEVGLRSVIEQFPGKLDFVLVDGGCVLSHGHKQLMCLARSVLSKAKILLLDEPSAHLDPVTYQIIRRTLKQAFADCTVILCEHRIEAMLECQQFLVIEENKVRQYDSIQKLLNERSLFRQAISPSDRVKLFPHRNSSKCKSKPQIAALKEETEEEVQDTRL

pEC50	Emax	SMILES
4.22 to 4.60	25 to 100%	CCCn1c(C(C)N2CCN(S(=O)(=O)c3c(C)cc(C)cc3C)CC2)nc2ccccc2c1=O (stereo not drawn) [compound 21]
4.22 to 4.60	< 25%	CC(c1nc2ccccc2c(=O)n1C)N1CCN(S(=O)(=O)c2c(Cl)nc3sccn23)CC1 (stereo not drawn) [compound 268]
4.60 to 5.00	25 to 100%	CCCn1c(CN2CCN(S(=O)(=O)c3ccc(OC)cc3)CC2)nc2ccccc2c1=O [compound 150]
4.22 to 4.60	25 to 100%	CC(=O)NCCn1c(C(C)N2CCN(S(=O)(=O)c3ccc(Br)cc3)CC2)nc2ccccc2c1=O (stereo not drawn) [compound 287]
4.22 to 4.60	< 25%	COC(=O)c1ccccc1S(=O)(=O)N1CCN(C(C)c2nc3ccccc3c(=O)n2C)CC1 (stereo not drawn) [compound 245]
4.22 to 4.60	25 to 100%	CCCn1c(C(C)N2CCN(C(=O)Nc3ccc(F)cc3F)CC2)nc2ccccc2c1=O (stereo not drawn) [compound 24]
4.22 to 4.60	< 25%	CC(c1nc2ccccc2c(=O)n1C)N1CCN(S(=O)(=O)c2cccc(C#N)c2)CC1 (stereo not drawn) [compound 279]
4.60 to 5.00	25 to 100%	Cc1ccccc1S(=O)(=O)N1CCN(C(C)c2nc3ccc(Cl)cc3c(=O)n2C)CC1 (stereo not drawn) [compound 80]
4.60 to 5.00	> 100%	CCCn1c(C(C)N2CCN(S(=O)(=O)c3ccc(C)cc3)CC2)nc2ccccc2c1=O (stereo not drawn) [compound 29]
4.60 to 5.00	> 100%	CC(c1nc2ccccc2c(=O)n1C)N1CCN(S(=O)(=O)c2ccc(Br)cc2)CC1 (stereo not drawn) [compound 51]
4.60 to 5.00	25 to 100%	COc1ccc(S(=O)(=O)N2CCN(C(C)c3nc4ccc(Cl)cc4c(=O)n3C)CC2)cc1OC (stereo not drawn) [compound 72]
4.22 to 4.60	25 to 100%	CCNc1nc(C(C)N2CCN(S(=O)(=O)c3ccc(Br)cc3)CC2)nc2ccccc12 (stereo not drawn) [compound 221]
4.60 to 5.00	25 to 100%	COc1ccc(S(=O)(=O)N2CCN(C(C)c3nc4ccc(N)cc4c(=O)n3C)CC2)cc1 (stereo not drawn) [compound 145]
4.22 to 4.60	25 to 100%	COc1cccc(S(=O)(=O)N2CCN(C(C)c3nc4ccccc4c(=O)n3C)CC2)c1 (stereo not drawn) [compound 249]
4.22 to 4.60	< 25%	CC(c1nc2ccccc2c(=O)n1C)N1CCN(S(=O)(=O)c2cccs2)CC1 (stereo not drawn) [compound 274]
4.60 to 5.00	< 25%	CC(c1nc2ccccc2c(=O)[nH]1)N1CCN(S(=O)(=O)c2ccc(Cl)cc2)CC1 (stereo not drawn) [compound 131]
4.22 to 4.60	25 to 100%	COc1ccc(S(=O)(=O)N2CCN(C(C)c3nc(N(C)C)c4ccccc4n3)CC2)cc1 (stereo not drawn) [compound 193]

pEC50	Emax	SMILES
4.22 to 4.60	< 25%	CCCn1c(C(C)N2CCN(S(=O)(=O)c3ccc(Cl)c([N+](=O)[O-])c3)CC2)nc2ccccc2c1=O (stereo not drawn) [compound 20]
4.22 to 4.60	25 to 100%	CC(c1nc2ccccc2c(=O)n1C)N1CCN(S(=O)(=O)c2ccccc2)CC1 (stereo not drawn) [compound 68]
4.22 to 4.60	< 25%	CC(c1nc2ccccc2c(=O)n1C)N1CCN(C(=O)c2ccccc2Cl)CC1 (stereo not drawn) [compound 82]
4.22 to 4.60	25 to 100%	CC(c1nc2ccccc2c(=O)n1C)N(C)C1CCN(S(=O)(=O)c2ccc(Cl)cc2)CC1 (stereo not drawn) [compound 315]
4.60 to 5.00	25 to 100%	CC(=O)Nc1ccc(S(=O)(=O)N2CCN(C(C)c3nc4cc(Cl)ccc4c(=O)n3C)CC2)cc1 (stereo not drawn) [compound 111]
4.60 to 5.00	25 to 100%	CC(c1nc2cccc(Cl)c2c(=O)n1C)N1CCN(S(=O)(=O)c2ccc(Br)cc2)CC1 (stereo not drawn) [compound 105]
4.60 to 5.00	25 to 100%	CCCC(c1nc2ccccc2c(=O)[nH]1)N1CCN(S(=O)(=O)c2ccc(OC)cc2)CC1 (stereo not drawn) [compound 335]
4.22 to 4.60	< 25%	CC(c1nc2ccccc2c(=O)n1C)N1CCN(S(=O)(=O)c2ccc(C(C)(C)C)cc2)CC1 (stereo not drawn) [compound 13]
4.22 to 4.60	< 25%	CC(c1nc2ccccc2c(=O)n1C)N1CCN(S(=O)(=O)c2cccc(F)c2)CC1 (stereo not drawn) [compound 248]
4.22 to 4.60	< 25%	CC(c1nc2ccccc2c(=O)n1C)N1CCN(S(=O)(=O)c2ccc(-c3ccon3)s2)CC1 (stereo not drawn) [compound 269]
4.60 to 5.00	25 to 100%	CC(c1nc2ccc(Cl)cc2c(=O)n1C)N1CCN(S(=O)(=O)c2cccc(Cl)c2)CC1 (stereo not drawn) [compound 64]
4.60 to 5.00	25 to 100%	CC(c1nc2ccccc2c(=O)n1C)N1CCN(S(=O)(=O)c2ccc(Cl)s2)CC1 (stereo not drawn) [compound 260]
4.22 to 4.60	< 25%	CSc1nccc(-c2ccc(S(=O)(=O)N3CCN(C(C)c4nc5ccccc5c(=O)n4C)CC3)s2)n1 (stereo not drawn) [compound 277]
4.22 to 4.60	25 to 100%	COc1cc2nc(C(C)N3CCN(S(=O)(=O)c4ccc(Cl)cc4)CC3)n(C)c(=O)c2cc1OC (stereo not drawn) [compound 283]
4.60 to 5.00	< 25%	Cc1ccc(S(=O)(=O)N2CCN(C(C)c3nc4cccc(Cl)c4c(=O)n3C)CC2)cc1 (stereo not drawn) [compound 107]
4.22 to 4.60	25 to 100%	COc1ccc(S(=O)(=O)N2CCN(C(C)c3nc4ccccc4c(=O)n3CC(C)(C)C)CC2)cc1 (stereo not drawn) [compound 332]
4.60 to 5.00	25 to 100%	CCNc1nc(C(C)N2CCN(S(=O)(=O)c3ccc(Cl)cc3)CC2)nc2ccccc12 (stereo not drawn) [compound 234]

The next lines start with the compound.

SMILES	pEC50	Emax
COc1ccc(C(=O)N2CCN(C(C)c3nc4ccc(Cl)cc4c(=O)n3C)CC2)cc1OC (stereo not drawn) [compound 77]	4.22 to 4.60	< 25%
COc1ccc(S(=O)(=O)N2CCN(C(C)c3nc(OC4CCCCC4)c4cc(F)ccc4n3)CC2)cc1 (stereo not drawn) [compound 374]	> 5.00	25 to 100%
COc1ccc(S(=O)(=O)N2CCN(C(C)c3nc(N4CCC(O)CC4)c4ccccc4n3)CC2)cc1 (stereo not drawn) [compound 346]	4.22 to 4.60	25 to 100%
Cc1ccc(NC(=O)N2CCN(C(C)c3nc4ccc(Cl)cc4c(=O)n3C)CC2)cc1 (stereo not drawn) [compound 45]	4.22 to 4.60	25 to 100%
COc1ccc(S(=O)(=O)N2CCN(C(C)c3nc(NC4CCCCC4)c4cc(F)ccc4n3)CC2)cc1 (stereo not drawn) [compound 373]	4.60 to 5.00	25 to 100%
COc1ccc(S(=O)(=O)N2CCN(C(C)c3nc(OC4CCC(C)C(C)C4)c4ccccc4n3)CC2)cc1 (stereo not drawn) [compound 348]	> 5.00	> 100%
CC(NCCNS(=O)(=O)c1ccc(Br)cc1)c1nc2ccccc2c(=O)n1C (stereo not drawn) [compound 169]	4.22 to 4.60	25 to 100%
COc1ccc(S(=O)(=O)N(C)CCN(C(C)c2nc3ccccc3c(=O)n2C)S(=O)(=O)c2ccc(OC)cc2)cc1 (stereo not drawn) [compound 200]	4.22 to 4.60	< 25%
CC(c1nc(N2CCOCC2)c2ccccc2n1)N1CCN(S(=O)(=O)c2ccc(Br)cc2)CC1 (stereo not drawn) [compound 223]	4.60 to 5.00	> 100%
COc1ccc(S(=O)(=O)N2CCN(C(C)c3nc(N4CCC(C)CC4)c4ccccc4n3)CC2)cc1 (stereo not drawn) [compound 320]	> 5.00	> 100%
CC(c1nc2ccccc2c(=O)n1C)N1CCC(N)C1 (stereo not drawn) [compound 178]	4.22 to 4.60	< 25%
COc1ccc(C(=O)N2CCN(C(C)c3nc4cc(Cl)ccc4c(=O)n3C)CC2)cc1 (stereo not drawn) [compound 122]	4.60 to 5.00	< 25%
Cc1cccc(C(=O)N2CCN(C(C)c3nc4ccc(Cl)cc4c(=O)n3C)CC2)c1 (stereo not drawn) [compound 59]	4.22 to 4.60	25 to 100%
COc1ccc(S(=O)(=O)N2CCN(C(C)c3nc(OC4CCCCC4)c4nccnc4n3)CC2)cc1 (stereo not drawn) [compound 396]	4.60 to 5.00	> 100%
CC(c1nc2ccccc2c(=O)n1C)N1CC2CC1CN2 (stereo not drawn) [compound 186]	4.22 to 4.60	< 25%
CC(c1nc2ccccc2c(=O)n1C)N1CCN(C(=O)Nc2ccccc2)CC1 (stereo not drawn) [compound 31]	4.60 to 5.00	< 25%
COc1ccc(S(=O)(=O)N2CCN(C(C)c3nc(N4CCC5CCCCC5C4)c4ccccc4n3)CC2)cc1 (stereo not drawn) [compound 327]	> 5.00	> 100%
CC(c1nc2cc(Cl)ccc2c(=O)n1C)N1CCN(C(=O)c2ccc(F)cc2)CC1 (stereo not drawn) [compound 121]	4.60 to 5.00	< 25%
COc1ccc(S(=O)(=O)N2CCN(C(C)c3nc(N4CCCC4C)c4ccccc4n3)CC2)cc1 (stereo not drawn) [compound 325]	> 5.00	> 100%
COc1ccc(S(=O)(=O)N2CCN(C(C)c3ncc(CO)c(N4CCCCC4)n3)CC2)cc1 (stereo not drawn) [compound 359]	4.22 to 4.60	25 to 100%
COc1ccc(S(=O)(=O)N2CCN(C(C)c3nc(N4CCC5(CC4)OCCO5)c4ccccc4n3)CC2)cc1 (stereo not drawn) [compound 323]	4.60 to 5.00	25 to 100%
COc1ccc(S(=O)(=O)N2CCN(C(C)c3nc(N4CCCC(CO)C4)c4ccccc4n3)CC2)cc1 (stereo not drawn) [compound 344]	4.60 to 5.00	25 to 100%
CC(c1nc2ccccc2c(=O)n1C)N(C)CCNS(=O)(=O)c1ccc(Cl)cc1 (stereo not drawn) [compound 238]	4.22 to 4.60	< 25%
CC(NC[C@@H]1CCCCN1S(=O)(=O)c1ccc(Br)cc1)c1nc2ccccc2c(=O)n1C (stereo partly drawn) [compound 215]	4.22 to 4.60	< 25%
CC(NCCCNS(=O)(=O)c1ccc(Br)cc1)c1nc2ccccc2c(=O)n1C (stereo not drawn) [compound 174]	4.22 to 4.60	25 to 100%
COc1ccc(S(=O)(=O)N2CCN(C(C)c3nc(N(C)Cc4ccccc4)c4ccccc4n3)CC2)cc1 (stereo not drawn) [compound 368]	> 5.00	> 100%
CC(c1nc2ccccc2c(=O)n1C)N(CCNS(=O)(=O)c1ccc(Br)cc1)S(=O)(=O)c1ccc(Br)cc1 (stereo not drawn) [compound 199]	4.22 to 4.60	< 25%
CC(c1nc2ccc(Cl)cc2c(=O)n1C)N1CCN(C(=O)Nc2ccc(F)cc2F)C(C)C1 (stereo not drawn) [compound 3]	4.22 to 4.60	< 25%
CC(NCCNS(=O)(=O)c1ccc(Cl)cc1)c1nc2ccccc2c(=O)n1C (stereo not drawn) [compound 168]	4.22 to 4.60	< 25%
